Results taken from patent publication US20070149457A1, “Stable solid forms of enterostatin” (priority 2005, published 2007).

Key:
[1] = Humidity stress experiments at 58% relative humidity; type: physicochemical; details: for Observations after humidity stress: 58% RH; for Physical state after humidity stress: 58% relative humidity for 4 or 10 days
Source text: A sample of this enterostatin acetate, 1-hydroxy-2-naphthoic acid co-complex of the invention was stressed at 58% relative humidity for 4 or 10 days.
A sample of this enterostatin chloride, 1-hydroxy-2-naphthoic acid co-complex of the invention was stressed at 58% relative humidity for 4 or 10 days.
A sample of each co-complex of the above examples was stressed at 58% relative humidity for either 4 or 10 days.
The cocrystal guests piperazine and 1-OH-2-napthoic acid were stressed at 58% relative humidity.

[2] = Moisture balance (weight change with relative humidity); type: physicochemical
Method: Analytical techniques discussed below were conventional unless otherwise specified. In particular, differential scanning calorimetry and moisture balance experiments were carried out according to standard techniques. NMR was in D2O.
FIG. 3 provides moisture balance of this enterostatin acetate, 1-hydroxy-2-naphthoic acid co-complex of the invention.

Compound | Observations after humidity stress ([1]; 4 days) | Physical state after humidity stress [1] | Observations after humidity stress ([1]; 14 days) | Observations after humidity stress ([1]; 10 days) | further results
Enterostatin Acetate, 1-Hydroxy-2-naphthoic Acid [Example 2] | Bits, broken glass | remained solid |  |  | weight gain (moisture balance) ([2]; from 5 to 95% relative humidity): 22%; weight loss (moisture balance) ([2]; from 95 to 5% relative humidity): 24%
O=C(O)c1ccc2ccccc2c1O [1-OH-2-napthoic acid, reference compound] |  |  | Light brown chunks |  | Observations after humidity stress ([1]; 14 days, listed as 1-OH-2-napthoic): remained a solid
Enterostatin Chloride, Camphoric Acid [Example 5] |  |  |  | Deliquesced | 
Enterostatin Sulfate, Hippuric Acid [Example 7] |  |  |  | Tacky white goo | 
C1CNCCN1 [Piperazine, reference compound] |  |  | Oil puddle |  | Observations after humidity stress ([1]; 5 days): Oil puddle
Enterostatin Chloride, 1-Hydroxy-2-naphthoic Acid [Example 3] | Irregulars, chunks | remained solid |  |  | 
